Source: patent publication US20230255903A1, “URINARY SYMPTOM THERAPEUTIC AGENT” (TAIHO PHARMACEUTICAL CO., LTD., priority 2020, published 2023)
Where “and” joins values, the source holds several entries; their conditions need not be identical. Identical values can stand only once.

Assays:
[1] = system: patients having lower urinary tract disorders; assay: Placebo-controlled double-blind comparative study: adverse events and adverse drug reactions; format: in vivo, human
Protocol: (§1) Patients having detrusor underactivity (DU) and at least one voiding symptom associated with DU, such as abdominal straining to void, slow urinary stream, intermittent stream, residual urine, and reduced voiding efficiency, were used as subjects. Using such subjects, a placebo-controlled double-blind comparative study was performed to examine the effectiveness and safety of Compound 1 (this test was performed using patients also having overactive bladder as subjects). Under double-blind conditions (in which neither the doctor who prescribed the drug nor the patients knew which drug was administered to each patient), 200 mg of Compound 1 or a placebo was orally administered twice a day after a meal for 12 weeks to evaluate the effectiveness and safety of Compound 1.
To study the safety of Compound 1 in patients having lower urinary tract disorders, adverse events (any unfavorable medical event that occurred in patients who participated in this study; whether or not there is a causal relationship with the active ingredient) and adverse drug reactions (adverse events that are determined to “have a reasonable possibility” of a causal relationship with the drug) were measured.

[2] = system: patients having detrusor underactivity (DU); assay: Placebo-controlled double-blind comparative study: bladder voiding efficiency (BVE); format: in vivo, human; details: for BVE, Value at Week 12, Mean(S.D.) / BVE, Change from Baseline at Week 12, Mean(S.D.): 200 mg orally twice a day for 12 weeks, FAS; for BVE change, Mean Difference = Compound 1-Placebo: Week 12; for Effect on voiding efficiency (in words): 12 weeks
Protocol: as §1
To evaluate the effectiveness, BVE (bladder voiding efficiency) was evaluated. BVE (%) was calculated by the following formula:
Voided volume/(Voided volume+Residual urine volume)×100.
The voided volume refers to the amount of urine per urination. The residual urine volume refers to the amount of urine that resides in the bladder as measured by transabdominal ultrasonography after completion of urination. The difference between the baseline (before administration) and the measurement value after 12 weeks of the administration was evaluated by using a paired t-test, whereas the difference in amount of BVE variation between the Compound 1 group and the placebo group was evaluated by using Student's t-test.

[3] = 200 mg orally twice a day for 12 weeks, All Treated Patients, N=52
[4] = patients with a residual urine volume of 50 mL or more, N=29
[5] = patients with a residual urine volume of 100 mL or more, N=19
[6] = patients with a residual urine volume of less than 50 mL, N=19

CC1=C(CCCCCCCCCCCCCCCO)C(C)(C)CCC1=O [Compound 1, 3-(15-hydroxypentadecyl)-2,4,4-trimethyl-2-cyclohexen-1-one]
Adverse Drug Reactions, N (patients) [1, 3]: 0 | Adverse Drug Reactions, incidence [1, 3]: 0.0% | Adverse Events, N (patients) [1, 3]: 24 | Adverse Events, incidence [1, 3]: 46.2% | Safety and tolerability (in words) ([1]; oral administration of 200 mg twice a day for 12 weeks): well tolerated | BVE, Value at Week 12, Mean(S.D.) ([2]; entire group of patients having lower urinary tract disorders, N=48): 66.79 (27.04) % | BVE, Change from Baseline at Week 12, Mean(S.D.) ([2]; entire group of patients, N=48): 10.91% and 10.91 (26.48) % | BVE change, Mean Difference = Compound 1-Placebo ([2]; entire group of patients, Student's t-test p=0.178): 8.49% | Effect on voiding efficiency (in words) ([2]; patients with a residual urine volume of 50 mL or more or of 100 mL or more): significantly increased the voiding efficiency | BVE, Change from Baseline at Week 12, Mean(S.D.) [2, 4]: 18.41% and 18.41 (24.39) % | BVE, Value at Week 12, Mean(S.D.) [2, 4]: 61.66 (30.45) % | BVE change, Mean Difference = Compound 1-Placebo ([2]; patients with a residual urine volume of 50 mL or more, Student's t-test p=0.031): 15.53% | BVE, Change from Baseline at Week 12, Mean(S.D.) [2, 5]: 23.57% and 23.57 (25.54) % | BVE, Value at Week 12, Mean(S.D.) [2, 5]: 54.71 (33.78) % | BVE change, Mean Difference = Compound 1-Placebo ([2]; patients with a residual urine volume of 100 mL or more, Student's t-test p=0.025): 21.47% | BVE, Change from Baseline at Week 12, Mean(S.D.) [2, 6]: −0.55 (25.99) % | BVE, Value at Week 12, Mean(S.D.) [2, 6]: 74.62 (18.94) % | Effect on voiding efficiency (in words) ([2]; patients with a residual urine volume of less than 50 mL): did not significantly increase the voiding efficiency | BVE change, Mean Difference = Compound 1-Placebo ([2]; patients with a residual urine volume of less than 50 mL, Student's t-test p=0.853): −2.09%
